“Also recorded” adds a separate entry of the source.
Assays:
Type in all cases: in vivo, rat
[1] = system: Wpk/Wpk hydrocephalic rats; experiment: Cortical thickness from coronal sections of Wpk/Wpk hydrocephalic rats; conditions: 0.03 mg/kg body weight, day 8-17; measured at day 17; p<0.0001
Source text: (§1) Wistar Wpk/Wpk rats are an orthologous model of human type 3 Meckel Syndrome. Meckel Syndrome is a cilliopathology with both renal cystic and brain pathology. The brain pathology is severe hydrocephalus with hypoplasia of the corpus callosum.
Cortical thickness measured from coronal sections of Wpk/Wpk hydrocephalic rats at day 17. […] This finding is in agreement with the decreased degree of hydrocephalus in the antagonist treated animals and, therefore, have a decreased loss in cerebral cortex.

Wistar Wpk/Wpk rats [2] = experiment: Renal pathology (kidney weight) in Wpk/Wpk rats; conditions: day 8 through 17
Procedure: as §1
(§2) The inventors treated Wpk/Wpk affected as well as noncystic littermates with either TRPV4 agonist (GSK1016797, 0.003 mg/kg body weight) or antagonist (HC067047, 0.03 mg/kg) from day 8 through 17 and evaluated the cranial enlargement and cerebral manifestations. Both drugs were dissolved in DMSO prior to dilution with normal saline prior to injection (i.p.).
(§3) Wpk/Wpk affected as well as noncystic littermates were treated with TRPV4 antagonist RN-1734 from day 8 through 17 and evaluated the kidney weight and cerebral manifestations (bitemporal head diameter and vertical head dimensions/cranial height). Both drugs were dissolved in DMSO prior to dilution with normal saline prior to injection (i.p.).

Wistar Wpk/Wpk rats [3] = experiment: Hydrocephalic cranial/head enlargement in Wpk/Wpk rats; conditions: day 8 through 17
Procedure: as §1, §2, §3

[4] = Example 3: i.p., dose not given

Structure (SMILES)	cortical thickness [1]	renal pathology (Wistar Wpk/Wpk rats [2]; Example 2: agonist 0.003 mg/kg, antagonist 0.03 mg/kg, i.p.)	activity and alertness of treated rats (Wistar Wpk/Wpk rats [3]; 0.03 mg/kg i.p.)	head dimensions, treated affected rats versus normal littermates (Wistar Wpk/Wpk rats [3]; 0.03 mg/kg i.p.)	hydrocephalic enlargement of the cranium/brain (head measurements) (Wistar Wpk/Wpk rats [3]; 0.03 mg/kg i.p., affected Wpk/Wpk rats)	renal pathology (kidney weight) (Wistar Wpk/Wpk rats [2]; [4])	activity and alertness of treated rats (Wistar Wpk/Wpk rats [3]; [4])	head dimensions, treated affected rats versus normal littermates (Wistar Wpk/Wpk rats [3]; [4])	hydrocephalic enlargement of the cranium/brain (bitemporal head diameter, vertical head dimension) (Wistar Wpk/Wpk rats [3]; [4])
Cc1c(C(=O)Nc2cccc(C(F)(F)F)c2)cc(-c2ccccc2)n1CCCN1CCOCC1 [HC067047]	increased cortical thickness	did not affect the renal pathology	very active and alert like their nonaffected littermates	no difference in head dimensions	almost totally ameliorate; also recorded: significantly less hydrocephalic head measurements	–	–	–	–
CC(C)NCCN(C(C)C)S(=O)(=O)c1ccc(Cl)cc1Cl [RN-1734]	–	–	–	–	–	did not affect the renal pathology	very active and alert like their nonaffected littermates	no difference in head dimensions	almost totally ameliorate
